Results as given in patent publication US8415469B2, “Compounds and methods for kinase modulation, and indications therefor” (Plexxikon Inc., priority 2005, dated 2013).

How the values were obtained:
Type in all cases: biochemical
B-Raf = molecular target: T1, B-Raf (Homo sapiens, UniProt P15056); test: AlphaScreen kinase assay, B-Raf; details: read-out: IC50, activity toward kinase B-Raf
T1 construct: purchased Upstate Biotechnology

B-Raf V600E = molecular target: T2, B-Raf V600E (Homo sapiens, UniProt P15056, V600E); test: AlphaScreen kinase assay, B-Raf V600E; details: read-out: IC50, activity toward kinase B-Raf V600E
T2 construct: P4254. pFastBacBD-CDC37 BRAF D437-K722-X, V600E; His6 with pFastBac HT leader (TEV site) (N); made in house; host or cells: Sf9 (baculovirus; chaperone CDC37 co-expressed)
T2 sequence (P15056 with tags, fused parts or gaps V600E): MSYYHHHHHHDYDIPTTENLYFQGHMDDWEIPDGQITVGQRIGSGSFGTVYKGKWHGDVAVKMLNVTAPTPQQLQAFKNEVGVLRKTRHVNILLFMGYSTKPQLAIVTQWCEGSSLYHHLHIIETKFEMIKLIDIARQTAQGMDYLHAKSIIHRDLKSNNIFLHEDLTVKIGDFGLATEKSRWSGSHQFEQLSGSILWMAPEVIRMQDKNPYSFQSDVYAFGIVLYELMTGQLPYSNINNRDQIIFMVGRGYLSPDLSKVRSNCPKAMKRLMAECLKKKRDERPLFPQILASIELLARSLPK

Kit = molecular target: T3, Kit (Homo sapiens, UniProt P10721); test: AlphaScreen kinase assay, Kit; details: read-out: IC50, activity toward kinase Kit
T3 construct: P1332.N6 BI PTP KIT M552-K948-X COD; His6 (N); made in house; host or cells: E. coli (PTP1B co-expressed)
T3 sequence (P10721 with tags, fused parts or gaps): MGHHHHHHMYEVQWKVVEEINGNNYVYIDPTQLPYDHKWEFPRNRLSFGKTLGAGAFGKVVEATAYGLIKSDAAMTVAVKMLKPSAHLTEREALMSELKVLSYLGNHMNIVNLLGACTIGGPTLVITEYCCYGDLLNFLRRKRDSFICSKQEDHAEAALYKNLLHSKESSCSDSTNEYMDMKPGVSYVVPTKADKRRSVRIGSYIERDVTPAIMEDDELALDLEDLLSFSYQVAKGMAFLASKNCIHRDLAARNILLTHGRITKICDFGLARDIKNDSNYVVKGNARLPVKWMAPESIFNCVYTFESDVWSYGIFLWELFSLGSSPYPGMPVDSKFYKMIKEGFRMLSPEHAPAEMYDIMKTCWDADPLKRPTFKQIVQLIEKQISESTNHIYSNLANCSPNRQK

c-Raf-1 = molecular target: T4, c-Raf-1 (Homo sapiens, UniProt P04049); test: AlphaScreen kinase assay, c-Raf-1; details: read-out: IC50, activity toward kinase c-Raf-1
T4 construct: purchased Upstate Biotechnology
T4 sequence (P04049 whole entry): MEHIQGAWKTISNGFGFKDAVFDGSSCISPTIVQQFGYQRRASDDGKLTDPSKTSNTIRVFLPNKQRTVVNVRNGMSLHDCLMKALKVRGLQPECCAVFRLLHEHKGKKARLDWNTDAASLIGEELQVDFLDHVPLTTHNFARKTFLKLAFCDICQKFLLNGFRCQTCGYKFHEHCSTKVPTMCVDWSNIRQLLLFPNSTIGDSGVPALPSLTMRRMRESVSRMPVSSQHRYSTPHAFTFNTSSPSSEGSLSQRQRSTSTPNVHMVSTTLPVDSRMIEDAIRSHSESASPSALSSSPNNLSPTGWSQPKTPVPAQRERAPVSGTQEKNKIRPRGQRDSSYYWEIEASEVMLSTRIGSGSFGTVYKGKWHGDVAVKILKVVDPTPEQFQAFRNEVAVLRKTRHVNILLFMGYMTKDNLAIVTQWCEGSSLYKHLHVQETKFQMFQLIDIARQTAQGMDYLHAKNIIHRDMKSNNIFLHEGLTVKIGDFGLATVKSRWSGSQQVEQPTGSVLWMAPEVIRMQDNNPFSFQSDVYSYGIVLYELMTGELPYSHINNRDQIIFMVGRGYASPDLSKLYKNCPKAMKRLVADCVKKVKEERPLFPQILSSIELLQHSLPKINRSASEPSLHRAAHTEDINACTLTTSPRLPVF

Abl = molecular target: T5, Abl (Homo sapiens, UniProt P00519); test: AlphaScreen kinase assay, Abl; details: read-out: activity toward kinase Abl, IC50
T5 construct: P1121. pET-SPEC BI-PTP Abl G227-V515-X; His6 (N); made in house; host or cells: E. coli (PTP1B co-expressed)
T5 sequence (P00519 with tags, fused parts or gaps): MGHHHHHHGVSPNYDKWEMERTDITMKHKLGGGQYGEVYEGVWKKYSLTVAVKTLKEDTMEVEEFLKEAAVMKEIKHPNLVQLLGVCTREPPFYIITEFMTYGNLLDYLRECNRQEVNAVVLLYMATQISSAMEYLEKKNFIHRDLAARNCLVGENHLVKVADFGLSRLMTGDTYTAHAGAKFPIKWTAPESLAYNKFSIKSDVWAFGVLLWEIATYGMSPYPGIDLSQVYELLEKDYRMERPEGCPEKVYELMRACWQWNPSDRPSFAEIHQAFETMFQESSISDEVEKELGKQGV
Excerpt: (§1) AlphaScreen assay was used to screen additional kinases. The assay is similarly dependent on the phosphorylation of a peptide substrate. In this assay, an antibody that recognizes phosphorylated substrate is bound to an acceptor bead. The peptide substrate is attached to biotin, which binds to a donor head that contains streptavidin. Thus phosphorylated substrate is bound by antibody and streptavidin, bringing the donor and acceptor heads into close proximity when kinase is not inhibited. The donor produces singlet oxygen which results in emission from the acceptor when they are in close proximity. Conversely, when kinase is inhibited, the donor and acceptor beads are not associated and the emission from the acceptor is reduced.
(§2) AlphaScreen assays were done using compounds dissolved in DMSO to a concentration of 20 mM. The compounds were diluted accordingly to the desired final concentrations in each sample well, using 1:3 serial dilution for a total of 8 concentration points.

Ret = molecular target: T6, Ret (Homo sapiens, UniProt P07949); test: AlphaScreen kinase assay, Ret; details: read-out: IC50, activity toward kinase Ret
T6 construct: P1378.pET-SF BI-PTP RET H661-R1012 HIS; made in house
T6 sequence (P07949 with tags, fused parts or gaps): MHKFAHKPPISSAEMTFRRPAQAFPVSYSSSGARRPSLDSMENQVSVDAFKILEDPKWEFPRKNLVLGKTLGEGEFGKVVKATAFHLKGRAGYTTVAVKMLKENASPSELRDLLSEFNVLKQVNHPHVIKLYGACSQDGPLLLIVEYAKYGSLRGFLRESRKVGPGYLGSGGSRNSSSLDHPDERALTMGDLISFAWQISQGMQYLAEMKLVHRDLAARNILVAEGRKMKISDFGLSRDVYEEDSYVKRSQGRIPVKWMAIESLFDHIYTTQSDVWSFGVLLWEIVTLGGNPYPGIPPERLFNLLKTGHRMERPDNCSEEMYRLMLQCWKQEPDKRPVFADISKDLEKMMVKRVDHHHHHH

FGFR1 = molecular target: T7, FGFR1 (Homo sapiens, UniProt P11362, C488A/C584S); test: AlphaScreen kinase assay, FGFR1; details: read-out: IC50, activity toward kinase FGFR
T7 construct: P1351.pET N6 BI-PTP FGFR A458-E765-X C488A, C584S; made in house; host or cells: E. coli (PTP1B co-expressed)
T7 sequence (P11362 458-765 C488A/C584S): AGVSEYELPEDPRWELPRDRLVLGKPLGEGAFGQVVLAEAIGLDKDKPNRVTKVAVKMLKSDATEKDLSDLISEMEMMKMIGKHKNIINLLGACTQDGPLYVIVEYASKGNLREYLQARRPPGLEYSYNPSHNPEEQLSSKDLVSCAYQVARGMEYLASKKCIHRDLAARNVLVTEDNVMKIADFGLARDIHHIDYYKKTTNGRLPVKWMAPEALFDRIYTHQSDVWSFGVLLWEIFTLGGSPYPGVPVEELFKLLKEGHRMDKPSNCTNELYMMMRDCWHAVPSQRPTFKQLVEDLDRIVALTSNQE

Fak = molecular target: T8, Fak (Homo sapiens, UniProt Q05397); test: AlphaScreen kinase assay, Fak; details: read-out: IC50, activity toward kinase Fak
T8 construct: P1358.pFastBacHtb FAK S411-Q686-X; His6 with pFastBacHTb leader (TEV site) (N); made in house; host or cells: Sf9 (baculovirus)

Fms = molecular target: T9, Fms (Homo sapiens, UniProt P07333); test: AlphaScreen kinase assay, Fms; details: read-out: IC50, activity toward kinase Fms
T9 construct: purchased Upstate Biotechnology
T9 sequence (P07333 20-972): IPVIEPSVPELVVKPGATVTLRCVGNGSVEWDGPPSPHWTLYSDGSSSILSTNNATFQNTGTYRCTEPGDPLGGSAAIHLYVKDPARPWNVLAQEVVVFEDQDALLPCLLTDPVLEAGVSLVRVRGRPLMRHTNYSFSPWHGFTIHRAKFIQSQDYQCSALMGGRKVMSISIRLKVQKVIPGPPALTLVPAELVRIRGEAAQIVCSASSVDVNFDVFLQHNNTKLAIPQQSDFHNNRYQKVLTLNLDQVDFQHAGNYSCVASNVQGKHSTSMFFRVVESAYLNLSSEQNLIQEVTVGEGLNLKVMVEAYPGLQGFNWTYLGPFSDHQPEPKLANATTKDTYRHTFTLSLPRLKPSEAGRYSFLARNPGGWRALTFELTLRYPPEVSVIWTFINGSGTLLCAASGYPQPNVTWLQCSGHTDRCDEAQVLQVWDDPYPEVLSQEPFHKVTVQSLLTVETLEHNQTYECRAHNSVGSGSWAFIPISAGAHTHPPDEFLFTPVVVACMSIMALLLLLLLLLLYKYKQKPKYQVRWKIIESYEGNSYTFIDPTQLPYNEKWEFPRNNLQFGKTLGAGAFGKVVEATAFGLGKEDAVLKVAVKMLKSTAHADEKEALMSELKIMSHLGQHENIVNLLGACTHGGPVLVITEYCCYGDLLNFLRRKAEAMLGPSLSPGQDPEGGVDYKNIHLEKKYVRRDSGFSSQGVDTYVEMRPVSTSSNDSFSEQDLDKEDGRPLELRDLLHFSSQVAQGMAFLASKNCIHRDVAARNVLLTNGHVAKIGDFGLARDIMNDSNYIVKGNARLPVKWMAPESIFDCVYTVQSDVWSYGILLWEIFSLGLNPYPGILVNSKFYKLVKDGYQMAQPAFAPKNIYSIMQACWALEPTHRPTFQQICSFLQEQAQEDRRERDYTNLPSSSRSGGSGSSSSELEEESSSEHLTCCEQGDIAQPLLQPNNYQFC

Src = molecular target: T10, Src (Homo sapiens, UniProt P12931); test: AlphaScreen kinase assay, Src; details: read-out: IC50, activity toward kinase Src
T10 construct: P1144. pET-N6 BI-PTP SRC V86-L536-X; made in house
T10 sequence (P12931 with tags, fused parts or gaps): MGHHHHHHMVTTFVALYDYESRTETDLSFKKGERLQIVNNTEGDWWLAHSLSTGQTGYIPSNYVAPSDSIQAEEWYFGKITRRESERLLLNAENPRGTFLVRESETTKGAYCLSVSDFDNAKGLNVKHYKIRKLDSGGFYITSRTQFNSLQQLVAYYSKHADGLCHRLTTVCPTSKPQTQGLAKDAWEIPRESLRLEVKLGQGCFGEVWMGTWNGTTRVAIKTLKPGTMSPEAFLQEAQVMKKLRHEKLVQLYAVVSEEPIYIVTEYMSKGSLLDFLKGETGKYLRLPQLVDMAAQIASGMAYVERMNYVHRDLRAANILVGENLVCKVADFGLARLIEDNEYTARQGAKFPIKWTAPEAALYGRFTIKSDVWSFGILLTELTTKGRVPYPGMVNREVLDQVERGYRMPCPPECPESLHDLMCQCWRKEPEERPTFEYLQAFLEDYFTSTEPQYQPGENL

Pyk2 = molecular target: T11, Pyk2 (Homo sapiens, UniProt Q14289); test: AlphaScreen kinase assay, Pyk2; details: read-out: IC50, activity toward kinase Pyk2
T11 construct: purchased Upstate Biotechnology
T11 sequence (Q14289 whole entry): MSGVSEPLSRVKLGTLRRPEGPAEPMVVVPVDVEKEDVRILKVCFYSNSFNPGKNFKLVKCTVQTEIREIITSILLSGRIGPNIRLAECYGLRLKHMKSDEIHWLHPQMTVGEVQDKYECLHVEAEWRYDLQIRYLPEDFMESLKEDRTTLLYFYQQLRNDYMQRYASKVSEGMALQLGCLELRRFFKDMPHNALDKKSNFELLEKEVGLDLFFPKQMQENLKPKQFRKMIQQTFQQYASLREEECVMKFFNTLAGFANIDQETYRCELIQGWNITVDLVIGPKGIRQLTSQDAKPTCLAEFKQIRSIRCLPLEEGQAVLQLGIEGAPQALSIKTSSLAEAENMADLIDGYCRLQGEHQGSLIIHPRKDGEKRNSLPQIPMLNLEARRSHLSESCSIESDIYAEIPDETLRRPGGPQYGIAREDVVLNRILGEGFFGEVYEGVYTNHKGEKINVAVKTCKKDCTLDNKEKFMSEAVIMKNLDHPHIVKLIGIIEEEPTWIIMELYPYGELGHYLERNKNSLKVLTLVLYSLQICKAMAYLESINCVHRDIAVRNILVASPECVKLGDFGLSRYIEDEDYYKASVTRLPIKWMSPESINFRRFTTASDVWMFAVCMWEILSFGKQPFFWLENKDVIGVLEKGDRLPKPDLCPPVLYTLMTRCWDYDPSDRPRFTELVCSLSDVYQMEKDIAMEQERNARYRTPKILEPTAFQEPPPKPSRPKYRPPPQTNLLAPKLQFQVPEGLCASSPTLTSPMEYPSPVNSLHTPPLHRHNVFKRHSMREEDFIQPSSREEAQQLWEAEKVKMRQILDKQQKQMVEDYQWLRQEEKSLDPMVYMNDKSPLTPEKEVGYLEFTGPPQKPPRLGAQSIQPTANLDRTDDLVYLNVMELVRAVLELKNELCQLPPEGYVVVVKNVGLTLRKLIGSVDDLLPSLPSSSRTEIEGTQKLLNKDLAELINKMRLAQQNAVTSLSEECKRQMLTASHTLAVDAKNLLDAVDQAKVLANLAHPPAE

Jnk3 = molecular target: T12, Jnk3 (Homo sapiens, UniProt P53779); test: AlphaScreen kinase assay, Jnk3; details: read-out: IC50, activity toward kinase Jnk3
T12 construct: purchased Upstate Biotechnology

Kdr = molecular target: T13, Kdr (Homo sapiens, UniProt P35968); test: Z'-Lyte FRET kinase assay (Invitrogen), Kdr; details: read-out: IC50, activity toward kinase Kdr
T13 construct: purchased Invitrogen (assay run by Invitrogen)

Flt1 = molecular target: T14, Flt1 (Homo sapiens, UniProt P17948); test: AlphaScreen kinase assay, Flt1; details: read-out: IC50, activity toward kinase Flt1
T14 construct: P1826.pETN6 BI-PTP FLT1 M799-D1165-X WT; His6 (N); made in house; host or cells: E. coli (PTP1B co-expressed)
T14 sequence (P17948 with tags, fused parts or gaps): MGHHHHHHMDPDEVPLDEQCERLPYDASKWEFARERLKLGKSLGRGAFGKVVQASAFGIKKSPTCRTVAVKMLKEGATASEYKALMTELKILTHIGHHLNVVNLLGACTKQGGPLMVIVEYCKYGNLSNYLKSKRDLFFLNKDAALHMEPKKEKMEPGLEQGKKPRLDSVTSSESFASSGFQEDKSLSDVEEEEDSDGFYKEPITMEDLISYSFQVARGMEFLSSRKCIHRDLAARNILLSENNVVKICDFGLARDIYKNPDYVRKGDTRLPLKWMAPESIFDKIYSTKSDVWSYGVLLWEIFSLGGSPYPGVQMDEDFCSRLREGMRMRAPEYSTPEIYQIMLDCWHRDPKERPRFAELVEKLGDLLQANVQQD

Jnk1 = molecular target: T15, Jnk1 (Homo sapiens, UniProt P45983); test: AlphaScreen kinase assay, Jnk1; details: read-out: IC50, activity toward kinase Jnk1
T15 construct: purchased Upstate Biotechnology

Akt3 = Akt3 (Homo sapiens, UniProt Q9Y243); test: AlphaScreen kinase assay, Akt3; details: read-out: IC50, activity toward kinase Akt3
Excerpt: as §1, §2

MAP4K4 = MAP4K4 (Homo sapiens, UniProt O95819); test: AlphaScreen kinase assay, MAP4K4; details: read-out: IC50, activity toward kinase MAP4K4
Jnk2 = molecular target: T16, Jnk2 (Homo sapiens, UniProt P45984); test: AlphaScreen kinase assay, Jnk2; details: read-out: IC50, activity toward kinase Jnk2
T16 construct: purchased Roche Protein Expression Group (Indianapolis, IN)
Summary of the method: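 AlphaScreen, biotin-peptide substrate; streptavidin donor/anti-phospho acceptor beads; decreased emission = inhibition. Cpds 20 mM DMSO stock, 1:3 x 8 conc.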

Measured: IC50

T1 sequence (P15056 whole entry): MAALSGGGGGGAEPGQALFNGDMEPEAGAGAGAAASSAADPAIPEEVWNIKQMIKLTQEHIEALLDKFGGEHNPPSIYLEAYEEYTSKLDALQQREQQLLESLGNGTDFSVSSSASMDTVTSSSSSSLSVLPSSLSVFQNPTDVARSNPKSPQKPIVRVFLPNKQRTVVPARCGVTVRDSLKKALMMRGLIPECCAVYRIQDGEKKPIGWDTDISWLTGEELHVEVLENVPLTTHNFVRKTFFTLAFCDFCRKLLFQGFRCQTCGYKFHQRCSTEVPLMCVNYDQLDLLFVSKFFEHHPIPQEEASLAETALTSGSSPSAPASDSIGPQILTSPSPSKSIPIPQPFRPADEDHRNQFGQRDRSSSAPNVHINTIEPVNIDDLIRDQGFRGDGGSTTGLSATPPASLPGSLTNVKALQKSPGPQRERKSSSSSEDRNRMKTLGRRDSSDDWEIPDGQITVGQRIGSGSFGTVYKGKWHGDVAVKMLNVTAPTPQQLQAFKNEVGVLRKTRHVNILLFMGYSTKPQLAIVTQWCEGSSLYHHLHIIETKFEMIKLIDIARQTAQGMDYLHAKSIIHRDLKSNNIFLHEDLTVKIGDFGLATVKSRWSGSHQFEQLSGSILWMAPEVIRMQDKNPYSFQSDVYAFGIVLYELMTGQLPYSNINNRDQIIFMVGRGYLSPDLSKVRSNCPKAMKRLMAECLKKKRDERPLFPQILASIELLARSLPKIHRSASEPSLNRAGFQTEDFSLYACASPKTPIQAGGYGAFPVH

O=C(c1cc(O)ccc1F)c1c[nH]c2nccc(Cl)c12 [Compound P-0794]
≤ 10 µM: B-Raf | B-Raf V600E | Kit | c-Raf-1 | Abl | Ret

COc1cccc(Cc2c[nH]c3nccc(Br)c23)c1 [Compound P-0501]
≤ 10 µM: FGFR1 | Fak | Fms | Src | Kit | Pyk2 | Abl | Ret

Cc1ccc(F)cc1C(=O)c1c[nH]c2ncc(-c3ccsc3)cc12 [Compound P-0671]
≤ 10 µM: FGFR1 | B-Raf V600E | Jnk3 | Kit | Abl | Ret

Cc1ccc(S(=O)(=O)NCc2c[nH]c3ncc(-c4ccsc4)cc23)cc1 [Compound P-1127]
≤ 10 µM: Abl

Cc1cc(C(=O)c2c[nH]c3ncc(-c4cccc(N)c4)cc23)n(C)n1 [Compound P-1115]
≤ 10 µM: Abl | Ret

CCOc1cccc(Cc2c[nH]c3ncc(-c4ccsc4)cc23)c1 [Compound P-0562]
≤ 10 µM: FGFR1 | Src | Jnk3 | Kit | Pyk2 | Kdr | Abl

Cc1ccccc1C(=O)c1c[nH]c2ncc(-c3ccc(C(N)=O)cc3)cc12 [Compound P-1011]
≤ 10 µM: Jnk3 | Abl | Ret

c1csc(Sc2c[nH]c3ncccc23)c1 [Compound P-0529]
≤ 10 µM: Pyk2 | Abl

O=C(c1cc(O)ccc1F)c1c[nH]c2ncc(-c3ccsc3)cc12 [Compound P-0604]
≤ 10 µM: B-Raf | B-Raf V600E | Jnk3 | Kit | c-Raf-1 | Abl | Ret

Cc1ccccc1C(=O)c1c[nH]c2ncc(-c3ccsc3)cc12 [Compound P-0244]
≤ 10 µM: FGFR1 | B-Raf V600E | Fms | Src | Jnk3 | Flt1 | Kit | Jnk1 | Abl | Ret

Cc1ccc(F)cc1C(=O)c1c[nH]c2ncc(-c3cccnc3)cc12 [Compound P-0693]
≤ 10 µM: FGFR1 | B-Raf | B-Raf V600E | Kit | Abl | Ret

COc1ccc(S(=O)(=O)Nc2ccc(F)c(C(=O)c3c[nH]c4ncccc34)c2F)cc1 [Compound P-0958, N-[2,4-Difluoro-3-(1H-pyrrolo[2,3-b]pyridine-3-carbonyl)-phenyl]-4-methoxy-benzenesulfonamide]
not listed: Abl | Ret | Fak | Pyk2 | Jnk3 | Kdr | Jnk2
≤ 10 µM: all other assays above

Cc1ccccc1C(=O)c1c[nH]c2ncc(-c3cccnc3)cc12 [Compound P-0623]
≤ 10 µM: FGFR1 | B-Raf V600E | Src | Kit | Kdr | Jnk2 | Abl | Ret
